Test results as given in patent US4774184A, “Culture and process for producing antibiotic LL-D42067alpha” (American Cyanamid Company, priority 1985, dated 1988).
In brackets after ≈: the same amount, converted by molar mass. Read-outs that look alike come from different tables or passages of the source.

Assays:
Type in all cases: cell-based
[1] = test system: Acinetobacter calcoaceticus; experiment: in vitro antimicrobial spectrum, agar plate dilution MIC; details: strain Stfd-79-17, Mueller-Hinton agar, 18 hours, 35° C., read-out: minimal inhibitory concentration (MIC)
Procedure: (§1) The in vitro antimicrobial spectrum of LL-D42067α was determined by the agar plate dilution method with Mueller-Hinton agar and an inoculum of each test organism of approximately 10^4 colony forming units delivered by the Steers replicating device. The minimal inhibitory concentration (MIC) in mcg/ml was defined as the lowest concentration of LL-D42067α that inhibited visible growth after 18 hours incubation at 35° C.

Bacillus cereus = experiment: as above; details: strain LL #4, Mueller-Hinton agar, 18 hours, 35° C., read-out: minimal inhibitory concentration (MIC)
Procedure: as §1

Bacillus subtilis = experiment: as above; details: ATCC6633, strain ATCC 6633, Mueller-Hinton agar, 18 hours, 35° C., read-out: minimal inhibitory concentration (MIC)
Procedure: as §1

Candida albicans = experiment: as above; details: strain CA 300, Mueller-Hinton agar, 18 hours, 35° C., read-out: minimal inhibitory concentration (MIC)
Procedure: as §1

Escherichia coli = experiment: as above; details: 18 hours, 35° C., read-out: minimal inhibitory concentration (MIC)
Procedure: as §1

Klebsiella pneumoniae = experiment: as above; details: strain AD, Mueller-Hinton agar, 18 hours, 35° C., read-out: minimal inhibitory concentration (MIC)
Procedure: as §1

Micrococcus luteus = experiment: as above; details: strain PC 1001, Mueller-Hinton agar, 18 hours, 35° C., read-out: minimal inhibitory concentration (MIC)
Procedure: as §1

Proteus morganii = experiment: as above; details: Morganella morganii; strain K-79-25; Mueller-Hinton agar, 18 hours, 35° C.; read-out: minimal inhibitory concentration (MIC)
Procedure: as §1

Saccharomyces cerevisiae = experiment: as above; details: strain Y 15, Mueller-Hinton agar, 18 hours, 35° C., read-out: minimal inhibitory concentration (MIC)
Procedure: as §1

Staphylococcus aureus = experiment: as above; details: Mueller-Hinton agar, 18 hours, 35° C.; for MIC: Staphylococcus aureus, read-out: minimal inhibitory concentration (MIC)
Procedure: as §1

[2] = test system: Staphylococcus epidermidis; experiment: as above; details: 18 hours, 35° C., read-out: minimal inhibitory concentration (MIC)
Procedure: as §1

[3] = test system: Streptococcus (enterococcus sp); experiment: as above; details: Mueller-Hinton agar, 18 hours, 35° C.
Procedure: as §1

Streptococcus faecalis = experiment: as above; details: Enterococcus faecalis, ATCC29212; strain ATCC 29212; Mueller-Hinton agar, 18 hours, 35° C.; read-out: minimal inhibitory concentration (MIC)
Procedure: as §1

Streptococcus mutans = experiment: as above; details: 18 hours, 35° C., read-out: minimal inhibitory concentration (MIC)
Procedure: as §1

Streptococcus sanguis = experiment: as above; details: strain G9B (a), Mueller-Hinton agar, 18 hours, 35° C., read-out: minimal inhibitory concentration (MIC)
Procedure: as §1

gram-positive bacteria = experiment: in vitro antimicrobial spectrum, summary in words; details: summary of Table VI
Procedure: as §1

yeasts = experiment: in vitro antimicrobial spectrum, summary in words; details: summary of Table VI
Procedure: as §1

`COc1c2c(c(O)c3c(=O)c4c(oc13)C(O)CCC4O)-c1c3c(c4cc(C)n(C)c(=O)c4c1O)OCOC3C2` (stereo not drawn) [LL-D42067α] was tested. Which MIC [1] did it give?
The MIC was 512 µg/mL (≈ 956 µM).

And the MIC (Bacillus cereus)?
Its MIC is at most 0.06 µg/mL.

What about the MIC (Bacillus subtilis) of the same compound?
Its MIC is at most 0.06 µg/mL.

What about the MIC (Candida albicans) of the same compound?
Its MIC is 256 µg/mL (≈ 478 µM).

And the MIC (Escherichia coli; ATCC25922, strain ATCC 25922, Mueller-Hinton agar)?
The MIC was 512 µg/mL (≈ 956 µM).

What about the MIC (Escherichia coli; strain #311, Mueller-Hinton agar) of the same compound?
Its MIC is 512 µg/mL (≈ 956 µM).

And the MIC (Klebsiella pneumoniae)?
The MIC was 512 µg/mL (≈ 956 µM).

And the MIC (Micrococcus luteus)?
The MIC was at most 0.06 µg/mL.

What about the MIC (Proteus morganii) of the same compound?
The MIC was 512 µg/mL (≈ 956 µM).

What about the MIC (Saccharomyces cerevisiae) of the same compound?
The MIC was 32 µg/mL (≈ 59.8 µM).

And the MIC (Staphylococcus aureus; ATCC25923, strain ATCC 25923)?
The MIC was at most 0.06 µg/mL.

What about the MIC (Staphylococcus aureus; strain Smith) of the same compound?
Its MIC is at most 0.06 µg/mL.

And the “minimal inhibitory concentration (MIC)” value (Staphylococcus aureus; strain LL #14)?
The value was at most 0.06 µg/mL.

And the “minimal inhibitory concentration (MIC)” value (Staphylococcus aureus; strain LL #27)?
Its value is at most 0.06 µg/mL.

And the “minimal inhibitory concentration (MIC)” value (Staphylococcus aureus; strain LL #45)?
The value was at most 0.06 µg/mL.

What about the MIC ([2]; ATCC12228, strain ATCC 12228, Mueller-Hinton agar) of the same compound?
Its MIC is at most 0.06 µg/mL.

And the MIC ([2]; strain CMC-83-56, Mueller-Hinton agar)?
Its MIC is at most 0.06 µg/mL.

And the MIC ([3]; Streptococcus, strain OSU-75-1, read-out: minimal inhibitory concentration (MIC))?
Its MIC is at most 0.06 µg/mL.

And the “minimal inhibitory concentration (MIC)” value ([3]; strain SM-77-15)?
Its value is at most 0.06 µg/mL.

And the MIC (Streptococcus faecalis)?
Its MIC is at most 0.06 µg/mL.

And the MIC (Streptococcus mutans; ATCC27352, strain ATCC 27352, Mueller-Hinton agar)?
Its MIC is at most 0.06 µg/mL.

What about the MIC (Streptococcus mutans; strain BHI (b), Mueller-Hinton agar) of the same compound?
The MIC was at most 0.06 µg/mL.

And the MIC (Streptococcus sanguis)?
Its MIC is at most 0.06 µg/mL.

What about the “antimicrobial activity versus gram-positive bacteria” value (gram-positive bacteria) of the same compound?
Its value is “active”.

What about the “antimicrobial activity against yeasts” value (yeasts) of the same compound?
The value was “moderately active”.
